Common to all, as to format: cell-based, murine and human
One assay addresses T1, PPARδ (UniProt Q03181).
T1 sequence (Q03181 1-441): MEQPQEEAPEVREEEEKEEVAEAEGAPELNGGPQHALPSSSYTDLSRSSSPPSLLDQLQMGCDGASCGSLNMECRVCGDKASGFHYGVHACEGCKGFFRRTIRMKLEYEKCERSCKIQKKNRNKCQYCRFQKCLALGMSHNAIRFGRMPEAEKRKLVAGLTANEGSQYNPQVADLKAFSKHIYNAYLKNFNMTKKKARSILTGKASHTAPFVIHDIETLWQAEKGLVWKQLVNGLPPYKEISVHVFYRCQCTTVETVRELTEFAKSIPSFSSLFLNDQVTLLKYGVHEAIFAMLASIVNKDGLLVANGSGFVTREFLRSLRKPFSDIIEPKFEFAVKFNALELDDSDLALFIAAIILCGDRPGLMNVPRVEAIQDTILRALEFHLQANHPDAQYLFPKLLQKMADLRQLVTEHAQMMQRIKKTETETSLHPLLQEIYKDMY
Kind of assay: PPARδ GAL4 chimera transactivation assay in CV-1 cells. To be noted: transient transfection, luciferase reporter, 20-24 hours, read-out: PPAR delta. An excerpt:
(§1) Compounds were screened for functional potency in transient transfection assays in CV-1 cells for their ability to activate the PPAR subtypes (transactivation assay). A previously established chimeric receptor system was utilized to allow comparison of the relative transcriptional activity of the receptor subtypes on the same synthetic response element and to prevent endogenous receptor activation from complicating the interpretation of results. See, for example, Lehmann, J. M.; Moore, L. B.; Smith-Oliver, T. A; Wilkinson, W. O.; Willson, T. M.; Kliewer, S. A., An antidiabetic thiazolidinedione is a high affinity ligand for peroxisome proliferator-activated receptor […], J. Biol. Chem., 1995, 270, 12953-6. The ligand binding domains for murine and human PPARα, PPARγ, and PPARδ are each fused to the yeast transcription factor GAL4 DNA binding domain. CV-1 cells were transiently transfected with expression vectors for the respective PPAR chimera along with a reporter construct containing four or five copies of the GAL4 DNA binding site driving expression of luciferase. […] Luciferase activity was then assayed with Britelite (Perkin Elmer) following the manufacturer's protocol and measured with either the Perkin Elmer Viewlux or Molecular Devices Acquest (see, for example, Kliewer, S. A., et. al. Cell 1995, 83, 813-819). […]

The target in the next assay is T2, PPARγ (UniProt P37231).
T2 sequence (P37231 1-505): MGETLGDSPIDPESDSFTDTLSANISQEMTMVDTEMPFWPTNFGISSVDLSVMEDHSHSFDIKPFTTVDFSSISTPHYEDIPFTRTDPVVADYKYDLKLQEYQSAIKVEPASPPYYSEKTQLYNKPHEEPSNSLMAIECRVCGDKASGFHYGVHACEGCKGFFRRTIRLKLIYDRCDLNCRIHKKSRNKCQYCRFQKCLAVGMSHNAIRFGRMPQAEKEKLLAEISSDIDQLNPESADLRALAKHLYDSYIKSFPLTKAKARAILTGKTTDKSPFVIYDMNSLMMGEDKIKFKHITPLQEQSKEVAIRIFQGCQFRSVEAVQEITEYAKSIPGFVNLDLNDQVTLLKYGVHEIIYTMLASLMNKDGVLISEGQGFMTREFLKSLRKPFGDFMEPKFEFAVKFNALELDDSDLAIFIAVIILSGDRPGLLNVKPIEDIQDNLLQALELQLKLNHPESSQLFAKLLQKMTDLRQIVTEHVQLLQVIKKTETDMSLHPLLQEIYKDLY
In words: PPARγ GAL4 chimera transactivation assay in CV-1 cells. To be noted: transient transfection, luciferase reporter, 20-24 hours, read-out: PPAR gamma.
From the text: as §1
Background: In a reporter assay the amount or activity of a reporter protein is the signal.

For a further assay, the target named is T3, PPARα (UniProt Q07869).
T3 sequence (Q07869 1-468): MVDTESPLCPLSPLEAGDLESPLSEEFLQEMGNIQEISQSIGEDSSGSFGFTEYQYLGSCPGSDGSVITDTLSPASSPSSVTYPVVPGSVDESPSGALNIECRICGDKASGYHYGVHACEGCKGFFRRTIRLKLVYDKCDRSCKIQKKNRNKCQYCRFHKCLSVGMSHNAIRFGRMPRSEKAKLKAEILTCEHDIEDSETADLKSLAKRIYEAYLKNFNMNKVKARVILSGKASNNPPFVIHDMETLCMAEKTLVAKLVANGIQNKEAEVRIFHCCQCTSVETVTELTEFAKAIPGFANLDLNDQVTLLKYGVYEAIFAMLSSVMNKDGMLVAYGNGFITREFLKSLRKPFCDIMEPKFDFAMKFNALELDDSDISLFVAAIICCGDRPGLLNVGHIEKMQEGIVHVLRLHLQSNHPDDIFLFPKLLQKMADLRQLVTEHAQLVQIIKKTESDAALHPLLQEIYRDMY
In words: PPARα GAL4 chimera transactivation assay in CV-1 cells. To be noted: transient transfection, luciferase reporter, 20-24 hours, read-out: PPAR alpha.
From the text: as §1

For the compound `C[C@@H]1CN(c2ccc(OC(F)(F)F)cc2)C[C@H](C)N1S(=O)(=O)c1cccc2c1C[C@@H](C(=O)O)C2` [Compound 1, (S)-4-[cis-2,6-Dimethyl-4-(4-trifluoromethoxy-phenyl)-piperazine-1-sulfonyl]-indan-2-carboxylic acid], the EC50 on PPARδ is under 5 µM; at PPARγ, over 100 µM; at PPARα, over 100 µM.
As for `C[C@@H]1CN(Cc2ccc(OC(F)(F)F)cc2)C[C@H](C)N1S(=O)(=O)c1cccc2c1C[C@@H](C(=O)O)C2` [Compound 2, (S)-4-[cis-2,6-Dimethyl-4-(4-trifluoromethoxy-benzyl)-piperazine-1-sulfonyl]-indan-2-carboxylic acid], the EC50 on PPARδ is under 5 µM; at PPARγ it was 5 to 100 µM; on PPARα, over 100 µM.

The values above are taken from US7863276B2, “Salts of modulators of PPAR and methods of treating metabolic disorders” (KALYPSYS, Inc, priority 2005, dated 2011).
